# Where two headings read alike, the source gives them in different places.
# Assays:
# [1] = poly(DL-lactide) nanoparticles
# Procedure: The test material is lovastatin in nanoparticles prepared as described above. […] The test articles are nanoparticles with and without lovastatin. […] The lovastatin levels are determined by HPLC and the release curved is followed throughout the experiment.
# [2] = system: neonatal murine calvaria; assay: Neonatal murine calvarial explant culture, bone and cartilage formation; type: cell-based, mouse
# Procedure: Four day old calvarial explant cultures were incubated with media containing scaffold material that releases 0, 0.4 or 8 μg/day. The extent of new cartilage is then quantitated by imaging analysis.
# Experimental Design Four day old Swiss white pups were employed as they are generally a healthy mouse strain. Calvaria from 4-day old Swiss white mouse pup mice were dissected out and cut in half. The excised hemi-calvariae were placed on metal grids (at the surface) in 1 ml BGJ media with Fitton-Jackson modification BGJ media (Sigma) containing 0.1% BSA with glutamine. The bones are incubated at 37° C. in a 5% humidified incubator for a period of 24 h and then transferred to wells containing 1 ml media with test compounds and further incubated under the above conditions for 72-96 h. The bones are then removed, fixed in 10% buffered formalin for 24 h, decalcified in 14% EDTA overnight, embedded in paraffin and 4 μm-thick sections cut and stained with H&E.
# Dosing. […] Calvaria are removed at day 7 and day 14. The media is changed every 3 days. Cartilage formation is assessed histologically.
# [3] = Plasma lovastatin by mass spectroscopy, fracture Experiment 2; type: in vivo; conditions: rat, 3 hrs after the last dose, read-out: Plasma lovastatin level
# Procedure: Plasma was taken from the rats 3 hrs after the last dose and the lovastatin was measured by mass spectroscopy. […] Effective plasma levels from transdermal administration is on the order of 2-3 ng/ml.
# [4] = system: rat femur; assay: Biomechanical testing of intact femurs (three point bending); type: in vivo
# Procedure: Three month old rats were dosed with vehicle or transdermal lovastatin, 1 mg/kg/day for 5 days. Four weeks after dosing, rats were euthanized and femurs removed and stored frozen. Samples were thawed to room temperature on the day of testing, and remaining soft tissue was removed. To obtain mechanical properties, the femurs were subjected to three point bending with an EnduraTEC mechanical testing system (Elf 3300, Bose Corporation, Minnetonka, Minn.). Each rat femur was horizontally positioned on the support rollers (which were 12 mm apart) such that the vertical, rounded indenter loaded the femur with the medial side in front and the anterior side down (i.e., bending occurred about the medial-lateral axis). The force-displacement curve was recorded as the indenter traveled at rate of 3 mm/min into femur midshaft. Structural properties were obtained directly from the load deformation curves.
# [5] = Plasma lovastatin levels after a single oral or dermal dose, estimated by HMG-CoA reductase inhibition assay; type: in vivo, rat
# Procedure: The area under the plasma concentration-time curve (AUC0-24 hr) of lovastatin equivalence was calculated using the trapezoidal rule for both oral and dermal application of lovastatin. For oral administration, a suspension of lovastatin was prepared in 0.5% methylcellulose and administered by gavage. For dermal administration, lovastatin was mixed initially with 100% DMSO and in subsequent experiments, with hydrophilic petrolatum and applied to the back of the animals after shaving (area of application=6.45 cm^2). In later experiments, the dermal formulation was modified and a aqueous alkanolic gel with a carbomer-based formulation containing water, ethanol, Carbomer 940, cholesterol, BHA and TEA was used.
# [6] = system: intact rats; assay: Effects of transdermal lovastatin on bone in intact rats (BMD, histomorphometry, μCT); type: in vivo, rat; conditions: for Increase in bone volume, proximal tibial metaphysis: dermal, hydrophilic petrolatum, 4 weeks after treatment
# Procedure: Following sacrifice, both femurs and tibiae were removed, cleaned of soft tissue, fixed in 10% formalin for 48 hours, and then stored in 70% ETOH and prepared for histology. Histomorphometric analysis was performed using a semiautomated Osteomeasure System (Osteometrics, Inc., Atlanta, Ga.) and digitizing pad and by following standard histomorphometric techniques. Bone volume, trabecular number, thickness and separation, cell number and dynamic parameters were determined as described previously by Parfitt et al. [Parfitt A M (1988) Bone histomorphometry: standardization of nomenclature, symbols and units. Summary of proposed system. J Bone Miner Res 4:1-5.]. Bone formation rates (BFR) and mineral apposition rates (MAR) were measured in plastic-embedded sections following demeclocycline and calcein injections (15 and 20 mg/kg/body weight respectively) given intraperitoneally at 10 and 4 days before sacrifice. Values for MAR were corrected for obliquity of the plane of section in cancellous bone. Rats were evaluated with a mouse densitometer, Piximus (GE Medical Systems); bone mineral density (BMD), calculated by dividing bone mineral content (g) by the projected bone area (cm^2), was assessed for the proximal third of the tibia at time 0 and at 5 weeks. Micro-computed tomography (μ-CT) analysis of the rat distal femur was kindly performed by Phil Salmon (Skyscan, Belgium). Bones were scanned using the Skyscan Model 1072 employing an x-ray tube voltage of 100 kV, and magnified to attain a pixel size of 10.13 μm. Data are expressed as the mean standard error (SEM). Statistical differences between groups were evaluated with one-way analysis of variance (ANOVA). […] P<0.05 were considered significant.
# [7] = transdermal 1 mg/kg/day for 5 days, femurs four weeks after dosing
# [8] = transdermal 1 and 5 mg/kg/day for 5 days
smiles,measurement,setting,value
CC[C@H](C)C(=O)O[C@H]1C[C@@H](C)C=C2C=C[C@H](C)[C@H](CC[C@@H]3C[C@@H](O)CC(=O)O3)[C@H]21 [lovastatin],Release rate of lovastatin from nanoparticles,[1],about 2 %/day
same,Bone formation in cultures of neonatal murine calvaria,[2]; 7 days after exposure,stimulates bone formation
same,Cartilage formation in cultures of neonatal murine calvaria,"[2]; 14 days after exposure, scaffold release 0.4 and 0.8 μg/24 h",stimulate cartilage formation in a dose response fashion
same,concentration at 3 h,[3]; oral 5 mg/kg/day,10 ng/mL
same,concentration at 3 h,"[3]; topical, transdermal 0.1 and 1 mg/kg/day",2 to 3 ng/mL
same,Increase in bending strength of femurs vs control,[4]; dermal 1 mg/kg/day for 5 days,19%
same,Bending strength,[4]; [7],165.2 ± 3 MPa
same,Maximum force,[4]; [7],141.7 ± 3.4 N
same,Modulus of elasticity,[4]; [7],6379.9 ± 455.1 MPa
same,Stiffness,[4]; [7],561.3 ± 29.5 N/mm
same,"Plasma levels, aqueous alkanolic gel compared with hydrophilic petrolatum",[5]; single dermal dose,higher plasma levels
same,Time to peak plasma levels,[5]; single dermal dose in aqueous alkanolic gel,within the first hour
same,"AUC0-24 h, aqueous alkanolic gel relative to petrolatum formulation","[5]; single dermal dose, both doses tested (6.25 and 25 mg/kg)",more than double
same,"Plasma concentrations, dermal compared with oral","[5]; single dose 10 or 50 mg/kg, dermal in 100% DMSO vs gavage in 0.5% methylcellulose, 1, 3, 6, 24 h","greater, less variable and more prolonged"
same,Bone formation rates greater than those of control rats,"[6]; after 30 days, transdermal 5 days",more than 150%
same,Increase in bone formation rates,[6]; dermal 5 mg/kg/day,166%
same,"Increase in bone volume, proximal tibial metaphysis",[6]; 1 mg/kg/day for 5 days only,17%
same,"Increase in bone volume, proximal tibial metaphysis",[6]; 5 mg/kg/day for 5 days only,33%
same,Cancellous bone volume in distal femoral metaphyses by μCT vs controls,[6]; [8],higher cancellous bone volume
same,"Trabecular thickness, number and spacing by μCT",[6]; [8],"increase in trabecular thickness and number, and reduced trabecular spacing"
same,Increase in BMD over vehicle-treated controls,"[6]; weekly dermal administration, proximal tibiae, Piximus, end of five weeks",8%

# — patent US20090181098A1, “Hmg-Co-a Reductase Inhibitor Enhancement of Bone and Cartilage” (OsteoScreen IP, LLC, priority 2006, published 2009)
